The source of these data is patent US9376436B2, “2-(pyridin-2yl)-1, 7-diaza-spiro [4.4] nonane-6-one compound as voltage-gated sodium channels modulators” (CONVERGENCE PHARMACEUTICALS LIMITED, priority 2011, dated 2016).

The structures appear in SMILES notation. Where a name gives a salt, the structure may show the parent alone. Read-outs that look alike come from different tables or passages of the source.

The assay concerns the target T1, hNaV1.7 (Homo sapiens, UniProt Q15858).
T1 construct: expressed in transfected cells; host or cells: HEK293
Description: QPatch NaV1.7 assay (whole-cell patch clamp, QPatch16x). The format is cell-based. The note with it: HEK293-hNaV1.7 cells. Put shortly:
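HEK293 cells expressing hNaV1.7 recorded by automated whole-cell patch clamp (CsF internal, pH 7.3). Peak currents from 20 ms steps to 0 mV measured at holding potentials of −90 mV and V1/2 SSI; four-point cumulative concentrations, 120 s each, Hill fits gave pIC50 at each potential.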
A general note: In patch-clamp work, channel activity is measured electrically.

Setting [1] is: holding voltage V1/2 SSI (half of channels inactivated), read-out: QP Nav1.7 SSI vhalf pIC50 (converted).
The mark [2] stands for this setting: holding voltage −90 mV (most channels closed), read-out: QP Nav1.7 −90 mV pIC50 (converted).

T1 sequence (Q15858 whole entry): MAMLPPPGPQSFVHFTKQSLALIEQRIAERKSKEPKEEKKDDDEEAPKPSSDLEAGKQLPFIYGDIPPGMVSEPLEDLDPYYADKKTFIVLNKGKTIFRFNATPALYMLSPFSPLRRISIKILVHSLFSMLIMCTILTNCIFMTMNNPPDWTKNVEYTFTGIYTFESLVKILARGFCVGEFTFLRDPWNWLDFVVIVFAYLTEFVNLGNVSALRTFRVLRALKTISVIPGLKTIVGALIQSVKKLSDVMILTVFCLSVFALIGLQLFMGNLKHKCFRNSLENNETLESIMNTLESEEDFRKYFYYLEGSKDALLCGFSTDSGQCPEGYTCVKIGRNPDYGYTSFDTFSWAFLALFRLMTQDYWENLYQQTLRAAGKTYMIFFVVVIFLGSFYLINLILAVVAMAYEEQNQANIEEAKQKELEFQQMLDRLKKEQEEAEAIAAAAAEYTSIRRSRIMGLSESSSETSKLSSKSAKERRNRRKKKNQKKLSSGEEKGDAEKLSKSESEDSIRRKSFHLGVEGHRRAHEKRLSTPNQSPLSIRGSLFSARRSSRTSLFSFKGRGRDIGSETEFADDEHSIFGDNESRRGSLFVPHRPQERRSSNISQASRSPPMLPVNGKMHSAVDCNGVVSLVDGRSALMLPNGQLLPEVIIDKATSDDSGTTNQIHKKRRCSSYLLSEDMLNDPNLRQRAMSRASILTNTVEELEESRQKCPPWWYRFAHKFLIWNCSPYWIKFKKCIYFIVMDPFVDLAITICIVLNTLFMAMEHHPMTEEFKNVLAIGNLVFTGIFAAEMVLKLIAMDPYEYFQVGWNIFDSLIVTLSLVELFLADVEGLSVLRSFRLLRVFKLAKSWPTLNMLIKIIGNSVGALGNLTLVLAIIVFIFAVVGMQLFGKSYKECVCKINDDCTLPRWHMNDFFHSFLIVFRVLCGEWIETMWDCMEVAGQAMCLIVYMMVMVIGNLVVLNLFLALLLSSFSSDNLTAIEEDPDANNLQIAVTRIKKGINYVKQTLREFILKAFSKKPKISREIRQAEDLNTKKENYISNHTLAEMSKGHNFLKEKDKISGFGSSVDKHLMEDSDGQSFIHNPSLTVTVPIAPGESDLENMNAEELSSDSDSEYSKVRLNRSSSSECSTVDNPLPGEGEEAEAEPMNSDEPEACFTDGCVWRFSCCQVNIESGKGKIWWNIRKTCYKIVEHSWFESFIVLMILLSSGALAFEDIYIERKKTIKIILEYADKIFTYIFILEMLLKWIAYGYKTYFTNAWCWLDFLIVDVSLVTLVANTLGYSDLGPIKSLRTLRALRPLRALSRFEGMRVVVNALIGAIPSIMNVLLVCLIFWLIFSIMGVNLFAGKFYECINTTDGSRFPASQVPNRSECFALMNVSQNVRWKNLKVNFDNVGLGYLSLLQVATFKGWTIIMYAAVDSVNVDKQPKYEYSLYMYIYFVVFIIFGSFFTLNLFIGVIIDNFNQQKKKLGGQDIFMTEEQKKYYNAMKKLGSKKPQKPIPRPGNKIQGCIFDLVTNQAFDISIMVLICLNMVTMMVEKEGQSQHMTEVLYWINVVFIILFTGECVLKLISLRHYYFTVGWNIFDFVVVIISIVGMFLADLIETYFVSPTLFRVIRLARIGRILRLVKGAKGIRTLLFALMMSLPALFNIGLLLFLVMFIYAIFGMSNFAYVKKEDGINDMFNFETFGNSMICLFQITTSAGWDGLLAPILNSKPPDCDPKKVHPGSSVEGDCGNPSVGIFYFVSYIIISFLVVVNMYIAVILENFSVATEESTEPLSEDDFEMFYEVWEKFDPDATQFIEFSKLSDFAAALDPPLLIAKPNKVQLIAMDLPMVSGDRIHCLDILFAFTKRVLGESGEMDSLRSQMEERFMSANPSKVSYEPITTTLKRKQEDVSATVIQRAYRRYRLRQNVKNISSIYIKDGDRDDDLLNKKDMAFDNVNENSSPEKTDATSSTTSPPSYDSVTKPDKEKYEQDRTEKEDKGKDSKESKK

Take `CCOc1ccc(F)c(-c2cc(C)nc([C@@H]3CC[C@]4(CCNC4=O)N3)c2)c1` [Example 102, (2S,5R)-2-[4-(5-Ethoxy-2-fluoro-phenyl)-6-methyl-2-pyridyl]-1,7-diazaspiro[4.4]nonan-6-one hydrochloride]: the IC50 is, setting by setting: under setting [1], 2000 nM; under setting [2], 25100 nM.

Take `CCOc1ccc(F)c(-c2cc(C)nc([C@H]3CC[C@]4(CCNC4=O)N3)c2)c1` [Example 103, (2R,5R)-2-[4-(5-Ethoxy-2-fluoro-phenyl)-6-methyl-2-pyridyl]-1,7-diazaspiro[4.4]nonan-6-one hydrochloride]: the IC50 is 126 nM under setting [1] and 2510 nM under setting [2].

For `CCOc1ccc(F)c(-c2cc(C)nc([C@H]3CC[C@@]4(CCNC4=O)N3)c2)c1` [Example 104, (2R,5S)-2-[4-(5-Ethoxy-2-fluoro-phenyl)-6-methyl-2-pyridyl]-1,7-diazaspiro[4.4]nonan-6-one hydrochloride], the IC50 reads like this: under setting [1], 158 nM; under setting [2], 1580 nM.

Turning to `CCOc1ccc(F)c(-c2cc(C)nc([C@@H]3CC[C@@]4(CCNC4=O)N3)c2)c1` [Example 105, (2S,5S)-2-[4-(5-Ethoxy-2-fluoro-phenyl)-6-methyl-2-pyridyl]-1,7-diazaspiro[4.4]nonan-6-one hydrochloride], the IC50 runs as follows: under setting [1], 2000 nM; under setting [2], 25100 nM.

On to `CCOc1ccc(F)c(-c2ccnc([C@@H]3CC[C@]4(CCCNC4=O)N3)c2)c1` [Example 106, (2S,5S)-2-[4-(5-Ethoxy-2-fluoro-phenyl)-pyridin-2-yl]-1,7-diaza-spiro[4.5]decan-6-one hydrochloride], for which the IC50 is 2000 nM under setting [1] and 5010 nM under setting [2].

Regarding `CCOc1ccc(F)c(-c2ccnc([C@H]3CC[C@]4(CCCNC4=O)N3)c2)c1` [Example 107, (2R,5S)-2-[4-(5-Ethoxy-2-fluoro-phenyl)-pyridin-2-yl]-1,7-diaza-spiro[4.5]decan-6-one hydrochloride], the IC50 under setting [1] was 200 nM and the IC50 under setting [2] is 1580 nM.

Regarding `CCOc1ccc(F)c(-c2ccnc([C@H]3CC[C@@]4(CCCNC4=O)N3)c2)c1` [Example 108, (2R,5R)-2-[4-(5-Ethoxy-2-fluoro-phenyl)-pyridin-2-yl]-1,7-diaza-spiro[4.5]decan-6-one hydrochloride], the IC50 is, setting by setting: under setting [1], 63.1 nM; under setting [2], 1260 nM.

Take `CCOc1ccc(F)c(-c2ccnc([C@@H]3CC[C@@]4(CCCNC4=O)N3)c2)c1` [Example 109, (2S,5R)-2-[4-(5-Ethoxy-2-fluoro-phenyl)-pyridin-2-yl]-1,7-diaza-spiro[4.5]decan-6-one hydrochloride]: the IC50 runs as follows: under setting [1], 1000 nM; under setting [2], 2000 nM.

`O=C1NCCC[C@@]12CC[C@@H](c1cc(-c3ccc(F)cc3)ccn1)N2` [Example 110, (2S,5R)-2-[4-(4-Fluoro-phenyl)-pyridin-2-yl]-1,7-diaza-spiro[4.5]decan-6-one hydrochloride]: the IC50 reads like this: under setting [1], 10000 nM; under setting [2], 251000 nM.

Regarding `O=C1NCCC[C@@]12CC[C@H](c1cc(-c3ccc(F)cc3)ccn1)N2` [Example 111, (2R,5R)-2-[4-(4-Fluoro-phenyl)-pyridin-2-yl]-1,7-diaza-spiro[4.5]decan-6-one hydrochloride], the IC50 under setting [1] was 63100 nM and the IC50 under setting [2] is 200000 nM.

For `O=C1NCCC[C@]12CC[C@H](c1cc(-c3ccc(F)cc3)ccn1)N2` [Example 112, (2R,5S)-2-[4-(4-Fluoro-phenyl)-pyridin-2-yl]-1,7-diaza-spiro[4.5]decan-6-one hydrochloride], the IC50 is, setting by setting: under setting [1], 3980 nM; under setting [2], 39800 nM.

Consider `O=C1NCCC[C@]12CC[C@@H](c1cc(-c3ccc(F)cc3)ccn1)N2` [Example 113, (2S,5S)-2-[4-(4-Fluoro-phenyl)-pyridin-2-yl]-1,7-diaza-spiro[4.5]decan-6-one hydrochloride], for which the IC50 reads like this: under setting [1], 50100 nM; under setting [2], 200000 nM.
